pEC50: −log10 of the molar value. Read-outs that look alike come from different tables or passages of the source.
Assays:
[1] = test system: Human primary myoblasts (HSMM) from healthy Donor 3, myotubes; test: MyoScreen hypertrophy assay on human primary myoblasts/myotubes, healthy Donor 3; assay type: cell-based; conditions: for activity at 10 µM / pEC50: Homo sapiens
Method: (§1) Healthy donor primary skeletal cells (Donor 1 and Donor 3) were Clonetics™ Human Skeletal Muscle Myoblasts (HSMM).
(§2) Hypertrophy and Atrophy Rescue assays were performed using an in vitro fully automated human myotube model called MyoScreen (Cytoo, France). This model relies on a tight control of the microenvironment that guides the differentiation of human primary myoblasts. Myotubes formed on MyoScreen™ micropatterns present a high level of maturation together with a highly standardized morphology.
(§3) Human primary myoblasts from donors 1, 3 and Z were seeded in MyoScreen™ micropatterned 96-well plates (Cytoo, France), let them adhere for 24 h in growth medium, then run the differentiation in a low horse serum medium for at least 5 days.
(§4) At Day0, MyoScreen™ plates (Cytoo, France) containing micropatterns were pre-filled with 200 μl/well of growth medium and stored in the incubator at 37° C. Human primary myoblasts were detached from the flasks, count, and seeded into the plates with 15 000 cells per well in 100 μl of growth medium.
(§5) At Day 1, the growth medium was changed for a differentiation medium, 300 μl/well (DMEM with 0.1% horse serum) in which myoblasts started differentiating and forming myotubes.
(§6) At Day 2, the differentiation medium was changed. Then candidate compounds were diluted with differentiation medium and transferred into the plate. The final concentration of DMSO should be not higher than 0.1%. At least 6 wells were treated with the vehicle as a basal control, and 6 wells were treated with IGF-1 at 100 ng/ml as positive hypertrophy control.
(§7) At Day 6, cells were fixed with formalin 5% for 30 min at room temperature, then permeabilized with Triton X-100 at 0.1% in PBS for 15 min, and blocked with PBS+BSA 1% for 20 minutes. Myotubes were incubated with first antibody against Troponin T in blocking buffer for 1 h30, washed three times with PBS, incubated with secondary antibody and Hoescht (1/10 000) for 1 h30, and washed three times with PBS.
(§8) Images were acquired at 10× magnification with an Operetta High Content Imaging System. Image processing and analysis were performed with dedicated algorithms developed on the Acapella High Content Imaging Software (Perkin Elmer) by CYTOO. Eleven fields per well were acquired.
(§9) First, segmentation of myotubes and nuclei were done using respectively the Troponin T staining intensity and the Hoechst staining. One to two myotubes per micropattern were usually identified (a myotube is a troponin T staining area that includes at least 2 nuclei). The threshold of segmentation was set-up in order to avoid detecting the background noise and eliminate aberrant small myotube structures. At the end of this first step, specific readouts were calculated in the whole well, like the nuclei count and the fusion index (percentage of nuclei included in troponin T staining). Usually around 50 to 60 myotubes were detected per well in a control condition.
(§10) Then, an image clean-up step was performed on the Troponin T images in order to remove myotubes that touch the border of the image. The final valid myotubes were used to extract myotube morphology parameters including the myotube width and area, and the number of nuclei per myotube.
(§11) Nuclei Count, Fusion Index, Mean myotube Area and Number of nuclei per myotube have been validated as relevant and sensitive readouts of myotube differentiation as well as atrophic and hypertrophic induction.
A primary screening was run to identify hypertrophy compounds that increase the myotube differentiation and size. Candidate compounds were tested at 10 μM in monoplicate on Donor 3 cells.
A retest was run, by cherry picking (same compound batch as primary screening): each hit was tested in the same conditions as in the Primary Screening (Donor 3, 10 μM) in six well replicates.
Dose response assays were performed on three donors (Healthy Donors 3 and 1, DMD Donor Z): 8 doses of candidate compounds between 33 μM and 0.015 μM, 2 well replicates per dose. […]

[2] = test system: Human primary myoblasts (HSMM) from healthy Donor 1, myotubes; test: MyoScreen hypertrophy assay, dose response, healthy Donor 1; assay type: cell-based; conditions: first dose response assay; for pEC50: Homo sapiens, not defined precisely
Method: as §1, §2, §3, §4, §5, §6, §7, §8, §9, §10, §11
(§12) Dose response assays were performed on three donors (Healthy Donors 3 and 1, DMD Donor Z): 8 doses of candidate compounds between 33 μM and 0.015 μM, 2 well replicates per dose.
(§13) Compounds of interest were tested several times in dose response, with triplicate of wells per dose. Results were normalized to the control condition (basal level), and plotted using GraphPadm Prism. The readout “nuclei count” allowed detecting any toxicity effect. The readouts “fusion index” and “myosin area” were used to determine the EC50 value using the GrapgPad Prism fitting solution. […]

[3] = test system: Human primary myoblasts from DMD (Duchenne muscular dystrophy) Donor Z, myotubes; test: MyoScreen hypertrophy assay, dose response, DMD Donor Z; assay type: cell-based; conditions: for activity: additional dose response assay, Donor Z, Mifepristone at 300 nM, IGF-1 positive control; for DMD myotube size and differentiation / pEC50 / % Activity: Donor Z (DMD); for DMD myotube size and differentiation: dose response; for pEC50: Homo sapiens, not defined precisely; for pEC50 / % Activity: first dose response assay
Method: In addition, cells from a DMD (Duchenne muscular dystrophy) donor were sourced (Donor Z) and used to confirm primary hits.
as §2, §3, §4, §5, §6, §7, §8, §9, §10, §11, §12, §13

[4] = test system: Myotubes from the healthy donor 3 atrophied with IL-1β, TNF-α or Myostatin; test: MyoScreen atrophy rescue assay (IL-1β, TNF-α, myostatin as atrophy inducers); assay type: cell-based, human; design: key: +++: total rescue; ++: partial rescue; +: low rescue; conditions: atrophy inducer IL-1β 25 ng/mL, nestorone 1 μM, corticosterone 3 μM, mifepristone 1 μM
[5] = test system: Myotubes from the healthy donor 3 atrophied with IL-1β, TNF-α or Myostatin; test: as above; assay type: cell-based, human; design: key: +++: total rescue; ++: partial rescue; +: low rescue; conditions: nestorone 1 μM, corticosterone 3 μM, mifepristone 1 μM; for atrophy rescue, TNF-alpha: atrophy inducer TNF-α 2 ng/mL; for atrophy rescue, Myostatin: atrophy inducer myostatin 150 ng/mL
Method: as §2, §3, §4, §5, §6
For Atrophy Rescue assay, one hour after candidate compound addition, atrophy inducers were added at the following final concentration: 150 ng/mL of myostatin, 25 ng/mL of […] and 2 ng/mL of TNF-α.
as §7, §8, §9, §10, §11
Atrophy Rescue assays were performed in the presence of atrophy inducers, i.e. TNF-α, IL-1β and Myostatin. Each compound was tested in triplicate of wells at 1 μM for nestorone, 3 μM for corticostestrone and 1 μM for mifepristone.
Myotubes from the healthy donor 3 were atrophied using different inducers: inflammation cytokines IL-1β and TNF-α and SMAD pathway activator Myostatin. The ability of each compound to block the atrophy induced by these different atrophy inducers was determined.

[6] = Donor 3, compounds at 10 μM, monoplicate, % Activity = myotube fusion index (compound)*100/fusion index (basal control), IGF-1 at 100 ng/ml, read-out: Primary screening (% Activity)
[7] = Donor 3, compounds at 10 μM, six well replicates, % of basal control fusion index, IGF-1 at 100 ng/ml, read-out: Retest (% Activity)
[8] = first dose response assay, Donor 3, not defined precisely
[9] = second dose response assay, Donor 3, lower concentrations
[10] = first dose response assay, Donor 3, 33 μM to 0.015 μM

Molecule	activity at 10 µM [1, 6]	activity at 10 µM [1, 7]	pEC50 [2]	% Activity [2]	activity [3]	pEC50 [1, 8]	pEC50 [1, 9]	% Activity [1, 10]	% Activity [1, 9]	atrophy rescue, IL-1 [4]	atrophy rescue, TNF-alpha [5]	atrophy rescue, Myostatin [5]	DMD myotube size and differentiation [3]	pEC50 [3]	% Activity [3]	Primary screening (% Activity) ([1]; Donor 3, compounds at 10 μM, monoplicate, % Activity = myotube fusion index (compound)*100/fusion index (basal control), IGF-1 at 100 ng/ml)	Retest (% Activity) ([1]; Donor 3, compounds at 10 μM, six well replicates, % of basal control fusion index, IGF-1 at 100 ng/ml)
C=C1C[C@H]2[C@@H]3C=C(C)C4=CC(=O)CC[C@]4(C)[C@H]3CC[C@]2(C)[C@@]1(OC(C)=O)C(C)=O [Melengestrol acetate]	140%	140%	–	–	–	–	–	–	–	–	–	–	–	–	–	–	–
CC#C[C@]1(O)CC[C@H]2[C@@H]3CCC4=CC(=O)CCC4=C3[C@@H](c3ccc(N(C)C)cc3)C[C@@]21C [Mifepristone]	140%	173%	~8.30	145%	156%	~7.30	7.00	133%	135%	+++	++	+++	–	–	–	–	–
C=C1C[C@H]2[C@@H]3CCC4=CC(=O)CC[C@@H]4[C@H]3CC[C@]2(C)[C@@]1(OC(C)=O)C(C)=O [Nestorone]	153%	189%	~7.00	130%	–	~7.00	6.70	115%	133%	++	+	++	significant increase	~7.00	181%	–	–
CC(=O)O[C@]1(C(C)=O)CC[C@H]2[C@@H]3C=C(C)C4=CC(=O)CC[C@]4(C)[C@H]3CC[C@@]21C [Megestrol acetate]	133%	125%	–	–	–	–	–	–	–	–	–	–	–	–	–	–	–
CC(=O)[C@H]1CC[C@H]2[C@@H]3CCC4=CC(=O)CC[C@]4(C)[C@H]3CC[C@]12C [Progesterone]	137%	114%	–	–	–	–	–	–	–	–	–	–	–	–	–	–	–
C[C@]12C[C@H](O)[C@H]3[C@@H](CCC4=CC(=O)CC[C@@]43C)[C@@H]1CC[C@@H]2C(=O)CO [Corticosterone]	148%	128%	~6.00	134%	–	~7.00	6.70	114%	120%	++	++	+++	significant increase	~6.30	145%	–	–
IGF-1: IGF-1 at 100 ng/ml as positive hypertrophy control	–	–	–	150%	200%	–	–	150%	150%	+++	+++	+++	–	–	250%	210%	190%

Source: patent US20200054649A1, “SKELETAL MUSCLE HYPERTROPHY INDUCERS” (CYTOO, priority 2016, published 2020)
